Values of other authors in article PMC11046985 (Neuro-Oncology Advances, 2024).

Experiments:
[1] = parameters: method as in earlier work; conditions: erlotinib increased from 150 to 600 mg; cited from earlier work
[2] = daily administration, patients with brain tumors; cited from earlier work

Row | SMILES | Increase of area under the curve estimation in the CSF [1] | Increase of area under the curve estimation in the plasma [1] | Therapeutic levels in cerebrospinal fluid (CSF) [2]
1 | C#Cc1cccc(Nc2ncnc3cc(OCCOC)c(OCCOC)cc23)c1 [erlotinib] | 24% | 2% | did not appear to reach therapeutic levels
2 | COc1cc2ncnc(Nc3ccc(F)c(Cl)c3)c2cc1OCCCN1CCOCC1 [gefitinib] | – | – | did not appear to reach therapeutic levels
